Source: US20070179183A1 (priority 2003, published 2007)

Molecular target: T1, α4β1 integrin (Homo sapiens, UniProt P05556+P13612)
T1 construct: endogenous in cells; host or cells: U-937 cells
Assay: U-937 Cell Adhesion to Human VCAM-1 (α4β1 Binding Assay)
Format: cell-based
Settings: read-out: IC50 values in the α4β1 assays
Protocol: Recombinant human soluble VCAM-1. (R&D Systems Ltd., UK) at 2 μg/ml in PBS was immobilized overnight onto microtiter plates. Unbound VCAM-1 was washed away and VCAM-1 coated plates were blocked with bovine serum albumin (BSA) 2.5% in PBS for 2 h at room temperature. U-937 cells were labelled with 5-carboxyfluorescein diacetate (5-CFDA) in order to detect bound cells to the wells. Test compounds were added to the wells followed by U-937 cells and the adhesion assay was performed for 1 h at 37° C. Following incubation, the wells were emptied and washed. Inhibition of binding was measured by the quantity of fluorescence bound to the plate for each of the various concentrations of test compound, as well as for controls containing no test compound, with a Cytofluor 2300 fluorescence measurement system.

T1 sequence (P13612 34-1032): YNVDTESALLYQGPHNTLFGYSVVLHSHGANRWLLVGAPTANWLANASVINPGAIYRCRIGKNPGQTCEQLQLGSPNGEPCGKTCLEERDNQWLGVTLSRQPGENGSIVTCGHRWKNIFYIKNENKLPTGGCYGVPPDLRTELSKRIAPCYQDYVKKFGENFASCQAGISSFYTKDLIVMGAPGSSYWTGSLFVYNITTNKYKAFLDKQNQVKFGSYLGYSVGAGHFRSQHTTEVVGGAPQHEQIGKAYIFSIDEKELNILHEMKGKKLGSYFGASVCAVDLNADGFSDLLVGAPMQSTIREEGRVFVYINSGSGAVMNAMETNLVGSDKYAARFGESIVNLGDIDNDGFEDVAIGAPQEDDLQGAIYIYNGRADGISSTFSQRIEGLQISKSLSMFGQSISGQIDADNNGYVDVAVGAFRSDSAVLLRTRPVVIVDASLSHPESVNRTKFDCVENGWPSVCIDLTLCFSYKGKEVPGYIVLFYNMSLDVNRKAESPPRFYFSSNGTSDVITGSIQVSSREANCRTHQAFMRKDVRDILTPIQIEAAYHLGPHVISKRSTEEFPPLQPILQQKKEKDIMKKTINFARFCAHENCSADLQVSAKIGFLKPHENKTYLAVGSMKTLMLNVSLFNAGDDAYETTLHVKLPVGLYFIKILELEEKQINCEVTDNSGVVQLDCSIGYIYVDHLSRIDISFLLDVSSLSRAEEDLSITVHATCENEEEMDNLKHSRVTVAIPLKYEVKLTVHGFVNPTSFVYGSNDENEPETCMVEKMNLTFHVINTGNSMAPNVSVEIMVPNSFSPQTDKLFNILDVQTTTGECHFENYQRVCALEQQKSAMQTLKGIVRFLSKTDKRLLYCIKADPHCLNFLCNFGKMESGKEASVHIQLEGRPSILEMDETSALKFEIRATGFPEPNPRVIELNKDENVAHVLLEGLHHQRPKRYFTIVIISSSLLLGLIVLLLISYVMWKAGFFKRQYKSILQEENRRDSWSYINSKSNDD
T1 sequence (P05556 21-798): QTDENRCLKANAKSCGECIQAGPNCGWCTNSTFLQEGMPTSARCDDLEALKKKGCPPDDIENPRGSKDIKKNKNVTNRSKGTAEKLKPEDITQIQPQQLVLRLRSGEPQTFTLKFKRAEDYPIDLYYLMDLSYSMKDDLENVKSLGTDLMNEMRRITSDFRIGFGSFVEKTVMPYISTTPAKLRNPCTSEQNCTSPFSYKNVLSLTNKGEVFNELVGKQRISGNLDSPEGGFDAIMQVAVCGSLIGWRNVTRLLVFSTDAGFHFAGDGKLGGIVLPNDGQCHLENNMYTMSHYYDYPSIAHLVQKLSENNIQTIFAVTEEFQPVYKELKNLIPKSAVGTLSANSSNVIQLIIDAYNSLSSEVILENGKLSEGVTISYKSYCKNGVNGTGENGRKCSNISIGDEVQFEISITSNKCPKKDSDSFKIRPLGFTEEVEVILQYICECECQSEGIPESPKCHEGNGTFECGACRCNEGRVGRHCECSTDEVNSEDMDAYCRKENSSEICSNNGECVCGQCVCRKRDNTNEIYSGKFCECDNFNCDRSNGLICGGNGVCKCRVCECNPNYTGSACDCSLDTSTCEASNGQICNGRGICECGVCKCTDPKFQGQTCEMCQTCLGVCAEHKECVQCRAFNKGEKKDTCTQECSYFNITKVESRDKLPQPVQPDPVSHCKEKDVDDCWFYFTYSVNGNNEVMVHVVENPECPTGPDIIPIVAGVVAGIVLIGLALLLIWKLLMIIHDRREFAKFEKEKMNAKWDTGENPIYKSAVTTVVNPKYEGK

IC50	SMILES
< 100 nM	O=C(Nc1ccc(C[C@H](NS(=O)(=O)NCc2ccccc2)C(=O)O)cc1)c1c(Cl)cccc1Cl [Example 3, (2S)-2-(N-benzylaminosulfonilamino)-3-[4-(2,6dichlorobenzoylamino)phenyl]propionic acid]
< 100 nM	O=C(Nc1ccc(C[C@H](NS(=O)(=O)Nc2ccccc2S(=O)(=O)c2ccccc2)C(=O)O)cc1)c1c(Cl)cncc1Cl [Example 81]
< 100 nM	CC(C)N(C1CCCC1)S(=O)(=O)N[C@@H](Cc1ccc(NC(=O)c2c(Cl)cncc2Cl)cc1)C(=O)O [Example 71, (2S)-2-({[cyclopentyl(isopropyl)amino]sulfonyl}amino)-3-{4-[(3,5-dichloroisonicotinoyl)amino]phenyl}propionic acid]
< 100 nM	CC(C)CN([C@H](C)c1ccccc1)S(=O)(=O)N[C@@H](Cc1ccc(NC(=O)c2c(Cl)cncc2Cl)cc1)C(=O)O [Example 77, (2S)-3-{4-[(3,5-dichloroisonicotinoyl)amino]phenyl}-2-[({isobutyl[(1R)-1-phenylethyl]amino}sulfonyl)amino]propionic acid]
